Laboratory results from US7696148B1, “Administration of products of the 5-lipoxygenase metabolic pathway to enhance antimicrobial defense” (Board of Trustees of Michigan State University, priority 1996, dated 2010).
Like-named read-outs stand apart in the source and are kept apart here.

Legend:
5-LO = biological target: T1, 5-LO (Mus musculus, UniProt P48999); conditions: once-daily oral agent; cited from earlier work
T1 construct: from tissue; host or cells: whole animal: wild type mice (129/SvEv, The Jackson Laboratory)
T1 sequence (P48999 1-674): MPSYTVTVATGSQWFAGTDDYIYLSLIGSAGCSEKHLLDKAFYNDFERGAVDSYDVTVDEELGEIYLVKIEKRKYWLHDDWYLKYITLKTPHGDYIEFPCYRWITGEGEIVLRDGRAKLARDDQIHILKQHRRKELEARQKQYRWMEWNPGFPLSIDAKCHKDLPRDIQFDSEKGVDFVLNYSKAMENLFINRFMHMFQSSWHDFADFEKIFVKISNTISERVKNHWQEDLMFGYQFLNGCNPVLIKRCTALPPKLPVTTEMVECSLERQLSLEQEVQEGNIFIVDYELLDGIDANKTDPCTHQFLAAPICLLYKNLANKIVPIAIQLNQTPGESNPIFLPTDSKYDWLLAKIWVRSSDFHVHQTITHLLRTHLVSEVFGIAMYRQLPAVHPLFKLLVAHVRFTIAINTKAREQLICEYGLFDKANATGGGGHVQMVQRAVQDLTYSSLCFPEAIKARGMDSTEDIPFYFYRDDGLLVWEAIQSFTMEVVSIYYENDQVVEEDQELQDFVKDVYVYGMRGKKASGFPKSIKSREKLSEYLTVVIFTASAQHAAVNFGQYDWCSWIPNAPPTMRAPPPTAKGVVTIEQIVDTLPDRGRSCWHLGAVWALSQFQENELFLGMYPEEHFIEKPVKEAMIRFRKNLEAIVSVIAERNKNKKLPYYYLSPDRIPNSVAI

[1] = test system: normal rat alveolar macrophages; test: Phagocytosis of K. pneumoniae by normal rat alveolar macrophages (phagocytic index); format: cell-based, Wistar rats
Procedure: (§1) For assays of bacterial phagocytosis and killing, alveolar macrophages were purified from bronchoalveolar lavage cells by adherence for 1 hour in HBSS and studied in monolayer culture. Adherent cells were preincubated with 5% K. pneumoniae-specific immune serum (as a source of both complement and specific opsonizing antibody) for 5 minutes at 37° C. prior to assays. Phagocytosis was studied by incubating 10^5 alveolar macrophages with 10^6 K. pneumoniae in each well of an 8-well Labtek® plate (Nunc) for 1 hour at 37° C.; in some experiments, exogenous LTB4 (Cayman) was added concomitantly with bacteria. The supernatants were aspirated and the cells were washed 3 times with HBSS. The slides were then allowed to air dry, Diff-Quik® (Difco) staining was performed, and 200 cells per well were counted to determine number of intracellular K. pneumoniae and percent of alveolar macrophages containing bacteria. Phagocytic index was calculated as the mean percentage of alveolar macrophages containing bacteria multiplied by the mean number of bacteria per alveolar macrophage.
Alveolar macrophages from Wistar rats were adhered and then incubated for 1 hour with K. pneumoniae alone or in the presence of 1 nM of several 5-LO metabolites (LTB4, LTC4, and 5-HETE). Phagocytic index was subsequently determined as described above in the General Methods.
A related experiment was also performed to determine if the ability of exogenous LTB4 to enhance bacterial phagocytosis is mediated by its interaction with LTB4 receptors. This experiment was based on the fact that pretreatment with LTB4 desensitizes cells to subsequent LTB4 responsiveness; though an understanding of the mechanism of this effect is not required to practice the present invention, the desensitization is believed to occur by down-regulating receptor expression or coupling. For this experiment, cells were pretreated with LTB4 (1 nM) for 1 hour, washed, and incubated with bacteria plus LTB4.

[2] = administered orally to rats; cited from earlier work
[3] = mice, once-daily oral dose; cited from earlier work
peritoneal macrophages = conditions: cited from earlier work
Schistosoma mansoni = conditions: neutrophils; cited from earlier work
[4] = 6 ng intratracheally per animal, 6 hours after administration, mice; cited from earlier work
S. typhimurium = conditions: intraperitoneal injection; cited from earlier work
[5] = test system: neutrophils from 5-LO knockout mice; test: Phagocytosis of K. pneumoniae by glycogen-elicited peritoneal neutrophils from 5-LO knockout mice; format: cell-based, mouse; conditions: 1 nM LTB4, one hour
Procedure: as §1
To obtain peritoneal elicited neutrophils, mice are injected intraperitoneally with 5% glycogen in PBS and peritoneal lavage is performed 5 hours later. Approximately 3×10^6 cells are obtained from each animal, approximately 85-90% of which are neutrophils. These cells are likewise placed into culture for functional studies. […]

[6] = test system: alveolar macrophages from 5-LO knockout mice; test: Phagocytosis of K. pneumoniae by alveolar macrophages from 5-LO knockout mice (phagocytic index); format: cell-based, mouse; conditions: 5-LO knockout alveolar macrophages
Procedure: as §1
Cultured alveolar macrophages from knockout mice were incubated in the presence of specific serum for 1 hour with K. pneumoniae alone or in the presence of varying doses of LTB4. Phagocytic index was calculated as described in the General Methods. FIG. 6 graphically depicts the effect of exogenous LTB4 (none, 0.1 nM, and 5 nM LTB4 added) on bacterial phagocytic activity in alveolar macrophages from 5-LO KO mice; each value represents the mean from triplicate cultures. […] Though not required in order to practice the present invention, it is believed that neutrophils manifest similar functional defects in phagocytosis and killing which could contribute to the sensitivity to bacterial pneumonia seen in knockout mice in vivo.

K. pneumoniae = test: Pulmonary bacterial clearance (lung homogenate CFU) after intratracheal K. pneumoniae challenge in 5-LO knockout mice; format: in vivo, mouse
Procedure: K. pneumoniae strain 43816, serotype 2 obtained from the ATCC (Assession No. 29939) was grown in tryptic soy broth (Difco) for 18 hours at 37° C. The preparation and intratracheal administration of K. pneumoniae were carried out as described by M. Schneemann et al. [J. Infect. Dis. 167:1358-1363 (1993)]. Bacterial concentration was determined by measuring absorbance at 600 nm and referencing to a standard curve of absorbances vs. known standard CFUs. Bacteria were then pelleted by centrifugation for 30 min at 10,000 rpm, washed ×2 in saline, and resuspended at the desired concentration in saline.
After appropriate dilution of bacteria in endotoxin-free saline, animals were anesthetized with sodium pentobarbital (approximately 0.2 mL diluted 1:7 in saline intraperitoneally) and the trachea was exposed via a small midline incision. […]
Plasma and lung CFU were determined as described by M. Schneemann et al. [J. Infect. […]
LTB4 was administered together with the intratracheal inoculum of K. pneumoniae (50 CFU). […] Second, the present inventors previously found (see FIG. 5) that approximately 7 ng of total LTB4 could be measured in the homogenate of a pair of lungs from Klebsiella-challenged wild type mice. […] Following 24 hours of bacterial inoculation, lungs were harvested and lung homogenate CFUs were determined.

[7] = in vivo bronchoscopic instillation into the human lung; cited from earlier work
[8] = normal rat alveolar macrophages, 1 nM, 1 hour with K. pneumoniae

C[C@H](C#Cc1ccc(Oc2ccc(F)cc2)o1)N(O)C(N)=O [A-79175]
efficacy in mice (5-LO): demonstrated efficacy in mice

CCCCC/C=C\C/C=C\C/C=C\C=C\[C@@H](O)CCCC(=O)O [5-HETE]
effect on phagocytic index [1, 8]: similar, though less pronounced, effect

CN(C)C(=O)CCSC(SCCC(=O)O)c1cccc(/C=C/c2ccc3ccc(Cl)cc3n2)c1 (stereo not drawn) [MK-571]
antigen-induced bronchoconstriction [2]: effectively inhibited antigen-induced bronchoconstriction

CCCCC/C=C\C\C=C/C=C/C=C/[C@@H](SC[C@H](NC(=O)CC[C@H](N)C(=O)O)C(=O)NCC(=O)O)[C@@H](O)CCCC(=O)O [LTC4, leukotriene C4]
effect on phagocytic index [1, 8]: augmented phagocytosis to a degree similar to LTB4

O=C(O)C1(c2ccc3c(c2)OC[C@H](Cc2ccc(-c4ccccc4)cc2)[C@H]3O)CCCC1 [CP-105,696]
collagen-induced arthritis [3]: inhibited collagen-induced arthritis

CCCCC/C=C\C[C@@H](O)/C=C/C=C/C=C\[C@@H](O)CCCC(=O)O [LTB4, leukotriene B4]
in vitro phagocytosis and killing of P. aeruginosa and Salmonella typhimurium (peritoneal macrophages): enhanced the in vitro phagocytosis and killing
effect of LTB4 pretreatment on LTB4-augmented phagocytosis ([1]; cells pretreated with LTB4 1 nM for 1 hour, washed, then bacteria plus LTB4 1 nM): almost completely abrogated
increase in phagocytic index [1, 8]: approximately 6 fold
in vitro killing of Schistosoma mansoni (Schistosoma mansoni): enhanced
neutrophil influx [4]: brisk neutrophil influx
in vivo clearance of S. typhimurium (S. typhimurium): enhanced the in vivo clearance
phagocytic index [5]: 27±8
phagocytic index relative to baseline level ([6]; 5 nM LTB4, 1 hour with K. pneumoniae, specific serum): approximately three
increase of phagocytic index ([6]; exogenous LTB4): approximately 300%
effect on phagocytic index ([6]; none, 0.1 nM and 5 nM LTB4): dose-dependently enhanced the phagocytic index
effect on in vivo bacterial clearance (K. pneumoniae; intrapulmonary administration): partially overcame the in vivo impairment in bacterial clearance
reduction of lung CFU (K. pneumoniae; single 6 ng intratracheal dose with 50 CFU inoculum, 24 hours): approximately 10 fold
neutrophil influx [7]: resulted in neutrophil influx
